Literature values in patent US20220142892A1, “PROCESS FOR THE PREPARATION AND USE OF HAIR TREATMENT COMPOSITIONS CONTAINING ORGANIC C1-C6 ALKOXY SILANES” (Henkel AG & Co. KGaA, priority 2019, published 2022).

Settings: 25° C.

Row | Structure (SMILES) | solubility in water | solubility in water (in words)
1 | O=S(=O)([O-])c1ccc(N=Nc2c(O)ccc3ccccc23)cc1.[Na+] [Acid Orange 7, sodium salt of 4-[(2-hydroxy-1-naphthyl)azo]benzene sulphonate] | more than 7 g/L | –
2 | Nc1cc(S(=O)(=O)[O-])cc2cc(S(=O)(=O)[O-])c(N=Nc3ccccc3)c(O)c12.[Na+].[Na+] [Acid Red 33, diantrium salt of 5-amino-4-hydroxy-3-(phenylazo)-naphthalene-2,7-disulphonate] | 2500 µg/mL | –
3 | O=C([O-])c1c(Cl)c(Cl)c(Cl)c(Cl)c1-c1c2c(Br)cc(=O)c(Br)c-2oc2c(Br)c(O)cc(Br)c12.O=C([O-])c1c(Cl)c(Cl)c(Cl)c(Cl)c1-c1c2c(Br)cc(=O)c(Br)c-2oc2c(Br)c(O)cc(Br)c12.[Na+].[Na+] [Acid Red 92, disodium salt of 3,4,5,6-tetrachloro-2-(1,4,5,8-tetrabromo-6-hydroxy-3-oxoxanthen-9-yl)benzoic acid] | greater than 10 g/L | –
4 | O=C([O-])C1=NN(c2ccc(S(=O)(=O)[O-])cc2)C(=O)C1N=Nc1ccc(S(=O)(=O)[O-])cc1.[Na+].[Na+].[Na+] (stereo not shown) [Acid Yellow 23, trisodium salt of 4,5-dihydro-5-oxo-1-(4-sulfophenyl)-4-((4-sulfophenyl)azo)-1H-pyrazole-3-carboxylic acid] | – | highly soluble
